One assay deals with PAI-1. Put plainly: Western blot of bleo-treated Beas2B cells: PAI-1. In kind it is cell-based, human. The following applies: 40 μg/ml bleo, 28 h. The method, then:
(§1) FIG. 4 depicts a set of Western blots showing the show the effect of bleo on uPA, uPAR, PAI-1 and p53 expression in LEC in vitro.
(§2) Beas2B cells were treated for 28 h with PBS or 40 μg/ml of bleo in the presence or absence of uPA or its ATF (20 nM), anti-β1-integrin monoclonal antibody (B1), (which activates β1-integrin by clustering), mouse IgG (mIgG), uPA+B1, uPA+mIgG, PP-1 (10 nM), or scrambled control peptide CP-1 (10 nM) at 37° C. In the case of uPA and PAI-1, the full length uPA was substituted with ATF, because uPA-mediated autoinduction or induction of PAI-1 occurs via the interaction of the ATF with uPAR (3-4). […] The membrane proteins were subjected to Western blotting using anti-uPAR antibody.
On the technique in general: A western blot detects proteins with antibodies after separation by electrophoresis.

The test system of another assay is uPAR. Put plainly: Western blot of bleo-treated Beas2B cells: uPAR. Format: cell-based, human. The following applies: 40 μg/ml bleo, 28 h. How it is done:
as §1, §2

Assay [1] relates to primary small airway epithelial (SAE) cells. As to the kind of experiment: SAE cell proliferation, DNA synthesis by [3H]-thymidine uptake. Format: cell-based, human. The conditions noted are these: uPA between 5 and 20 nM; bleomycin 40 μg/ml as positive control. The method, then: FIGS. 2A-2B is a set of graphs showing dose-dependent induction of primary small airway epithelial (SAE) cell apoptosis and proliferation by uPA. FIG. 2A, SAE cells were treated for 48 h with 0-20 nM uPA at 37° C. Apoptotic cells were analyzed by flow cytometry using anti-annexin-V antibody and propidium iodide (PI). Bleo (40 μg/ml) was used as positive control (90). FIG. 2B, The cells were next treated with uPA as described in FIG. 1A and DNA synthesis was determined by [^3H]-thymidine uptake as described (5).

In a further assay the test system is uPA. Put plainly: Western blot of bleo-treated Beas2B cells: uPA. The conditions noted are these: 40 μg/ml bleo, 28 h. In kind it is cell-based, human. The method, then: as §1, §2
For assay [2], the system named is bleo-induced DNA fragmentation. As to the kind of experiment: DNA fragmentation of genomic DNA from mouse lung extracts. The following applies: i.p. 0.1 ml osmotic minipump, 10 mM peptide, one day after intranasal bleo; lungs after 16 days. Format: in vivo. The method, then: Alternatively, PP-1 or CP-1 were administered in a continuous manner by i.p. implantation of an 0.1 ml osmotic minipump filled with PP-1 or CP-1 (10 mM or 2.92 mg/100 μl) one day after intranasal instillation of bleo. Lungs were harvested after 16 days. Total dose administered over that period was about 147 mg/kg. The apoptotic scores were calculated by counting the number of apoptotic cells in each field. Genomic DNA was isolated from saline, bleo, Bleo+PP-1 or Bleo+CP-1 mouse lung extracts, and subjected to DNA fragmentation.

As to Bleomycin, in the assay on PAI-1, the PAI-1 expression entry is “induced”. Further, the uPAR expression entry with uPAR is “suppressing”. Further, the “cell proliferation of SAE cells” value in assay [1] was “inhibited cell proliferation”. Also, in the assay on uPA, the uPA expression result is listed as “suppressing”.

On to “DGIWKASFTTFTVTKYWFYR [PP-1, residues 82-101 of human Cav-1, the caveolin-1 scaffolding domain]”, for which the “bleo-induced DNA fragmentation” value in assay [2] was “protect against bleo-induced LEC apoptosis and DNA fragmentation”.

The values are drawn from US8697840B2, “Peptide inhibition of lung epithelial apoptosis and pulmonary fibrosis” (Board of Regents, The University of Texas System, priority 2008, dated 2014).
